In patent US20230312587A1, “PTERIDINONE COMPOUNDS AND USES THEREOF” (Vertex Pharmaceutical Incorporated, priority 2018, published 2023):

test system: β-catenin-TCF-mediated reporter transcription activity in Colo 205 cells; assay: Colo 205 reporter assay (TCF/LEF luciferase); assay type: cell-based; settings: Colo 205 TCF/LEF luciferase reporter, five hours after addition of compound; read-out: TCF reporter Colo205 IC50
Method in brief: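 Luciferase signal from a TCF/LEF-driven reporter, stably integrated in Colo 205 colon cancer cells, was measured 5 h after compound addition.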

IC50 [nM] | SMILES
1000 to 5000 | Cc1nc(NCc2cnn(Cc3ccc(C(F)(F)F)nc3)c2)nc2c1NC(=O)C1(CCOC1)N2C (centres unmarked) [Compound 663, 4′,8′-dimethyl-2′-(((1-((6-(trifluoromethyl)pyridin-3-yl)methyl)-1H-pyrazol-4-yl)methyl)amino)-4,5,5′,8′-tetrahydro-2H,6′H-spiro[furan-3,7′-pteridin]-6′-one]
< 300 | CC[C@H]1C(=O)Nc2c(C)nc(NCc3cnn(Cc4ccc(OC(F)F)nc4)c3)nc2N1C [Compound 417, (7S)-2-(((1-((6-(difluoromethoxy)pyridin-3-yl)methyl)-1H-pyrazol-4-yl)methyl)amino)-7-ethyl-4,8-dimethyl-7,8-dihydropteridin-6(511)-one]

same assay, conditions: Homo sapiens, COLO 205, 5 h, Colo 205 TCF/LEF luciferase reporter, five hours after addition of compound; read-out: TCF reporter Colo205 IC50

SMILES | IC50 [nM]
Cc1nc(NCc2cnn(Cc3ccc(C4CC4)nc3)c2)nc2c1NC(=O)[C@H](C1CC1)N2C [Compound 441, (7S)-7-cyclopropyl-2-(((1-((6-cyclopropylpyridin-3-yl)methyl)-1H-pyrazol-4-yl)methyl)amino)-4,8-dimethyl-7,8-dihydropteridin-6(5H)-one] | < 300
Cc1nc(N[C@H]2C[C@@H](COc3ccc(F)nc3)C2)nc2c1NC(=O)[C@H](C(C)C)N2C [Compound 574, (S)-2-((cis-3-(((6-fluoropyridin-3-yl)oxy)methyl)cyclobutyl)amino)-7-isopropyl-4,8-dimethyl-7,8-dihydropteridin-6(5H)-one] | < 300
Cc1nc(NCc2cnn(Cc3ccc(F)cc3F)c2)nc2c1N(C)C(=O)[C@H](C)N2C [Compound 29, (7S)-2-(((1-(2,4-difluorobenzyl)-1H-pyrazol-4-yl)methyl)amino)-4,5,7,8-tetramethyl-7,8-dihydropteridin-6(5H)-one] | < 300
Cc1nc(NC2CN(C(=O)C3CCC(F)(F)CC3)C2)nc2c1NC(=O)[C@H](C(C)C)N2C [Compound 543, (S)-2-((1-(4,4-difluorocyclohexane-1-carbonyl)azetidin-3-yl)amino)-7-isopropyl-4,8-dimethyl-7,8-dihydropteridin-6(5H)-one] | 1000 to 5000
Cc1nc(N[C@@H]2CCN(Cc3ccccc3)C2)nc2c1NC(=O)[C@H](C)N2C [Compound 372, (7S)-2-(((R)-1-benzylpyrrolidin-3-yl)amino)-4,7,8-trimethyl-7,8-dihydropteridin-6(5H)-one] | ≥ 5000
Cc1nc(NCc2cnn(CC3CC4CCC3C4)c2)nc2c1NC(=O)[C@H](C)N2C (stereo partly drawn) [Compound 134, (7S)-2-(((1-(bicyclo[2.2.1]heptan-2-ylmethyl)-1H-pyrazol-4-yl)methyl)amino)-4,7,8-trimethyl-7,8-dihydropteridin-6(5H)-one] | < 300
CC[C@H]1C(=O)Nc2c(C)nc(N[C@H]3C[C@@H](Cn4ccc(C(F)(F)F)n4)C3)nc2N1C [Compound 692, (S)-7-ethyl-4,8-dimethyl-2-((cis-3-((3-(trifluoromethyl)-1H-pyrazol-1-yl)methyl)cyclobutyl)amino)-7,8-dihydropteridin-6(5H)-one] | 300 to 1000
Cc1nc(N[C@H]2C[C@H](Oc3ccc(C(F)(F)F)nc3)C2)nc2c1NC(=O)[C@H](COC(C)(C)C)N2C [Compound 725, (S)-7-(tert-butoxymethyl)-4,8-dimethyl-2-((trans-3-((6-(trifluoromethyl)pyridin-3-yl)oxy)cyclobutyl)amino)-7,8-dihydropteridin-6(5H)-one] | < 300
Cc1nc(NCc2cnn([C@H](C)Cc3ccccc3)c2)nc2c1NC(=O)[C@H](C)N2C [Compound 101, (7S)-4,7,8-trimethyl-2-(((1-((R)—1-phenylpropan-2-yl)-1H-pyrazol-4-yl)methyl)amino)-7,8-dihydropteridin-6(5H)-one] | < 300
Cc1nc(NC2CN(C(=O)C34CC(C(F)(F)F)(C3)C4)C2)nc2c1NC(=O)[C@H](C(C)C)N2C [Compound 699, (S)-7-isopropyl-4,8-dimethyl-2-((1-(3-(trifluoromethyl)bicyclo[1.1.1]pentane-1-carbonyl)azetidin-3-yl)amino)-7,8-dihydropteridin-6(5H)-one] | 1000 to 5000
Cc1nc(NCc2cnn(Cc3cn(C)nc3C(F)(F)F)c2)nc2c1NC(=O)[C@H](C)N2C [Compound 159, (7S)-4,7,8-trimethyl-2-(((1-((1-methyl-3-(trifluoromethyl)-1H-pyrazol-4-yl)methyl)-1H-pyrazol-4-yl)methyl)amino)-7,8-dihydropteridin-6(5H)-one] | 300 to 1000

More lines, now with the values ahead:

IC50 [nM] | SMILES
< 300 | Cc1cc(Cn2cc(CNc3nc(C)c4c(n3)N(C)[C@@H](C)C(=O)N4)cn2)cnc1C(F)(F)F [Compound 199, (7S)-4,7,8-trimethyl-2-(((1-((5-methyl-6-(trifluoromethyl)pyridin-3-yl)methyl)-1H-pyrazol-4-yl)methyl)amino)-7,8-dihydropteridin-6(5H)-one]
300 to 1000 | Cc1nc(N[C@H]2C[C@@H](Cn3nc(C(F)(F)F)cc3N)C2)nc2c1NC(=O)[C@H](C(C)C)N2C [Compound 585, (S)-2-((cis-3-((5-amino-3-(trifluoromethyl)-1H-pyrazol-1-yl)methyl)cyclobutyl)amino)-7-isopropyl-4,8-dimethyl-7,8-dihydropteridin-6(5H)-one]
300 to 1000 | CC[C@H]1C(=O)Nc2cnc(NCc3cnn(Cc4ccc(C(F)(F)F)nc4)c3)nc2N1C(C)C [Compound 497, (7S)-7-ethyl-8-isopropyl-2-(((1-((6-(trifluoromethyl)pyridin-3-yl)methyl)-1H-pyrazol-4-yl)methyl)amino)-7,8-dihydropteridin-6(5H)-one]
< 300 | COc1cc(F)ccc1Cn1cc(CNc2nc(C)c3c(n2)N(C)[C@@H](C)C(=O)N3C)cn1 [Compound 84, (7S)-2-(((1-(4-fluoro-2-methoxybenzyl)-1H-pyrazol-4-yl)methyl)amino)-4,5,7,8-tetramethyl-7,8-dihydropteridin-6(5H)-one]
300 to 1000 | Cc1nc(N[C@H]2C[C@@H](N(C)c3cnc(C(F)(F)F)cn3)C2)nc2c1NC(=O)[C@H](C(C)C)N2C [Compound 652, (S)-7-isopropyl-4,8-dimethyl-2-((cis-3-(methyl(5-(trifluoromethyl)pyrazin-2-yl)amino)cyclobutyl)amino)-7,8-dihydropteridin-6(5H)-one]
< 300 | Cc1nc(N[C@H]2C[C@@H](NC(=O)Cc3cc(F)c(F)c(F)c3)C2)nc2c1NC(=O)[C@H](C(C)C)N2C [Compound 514, N-(cis-3-(((S)-7-isopropyl-4,8-dimethyl-6-oxo-5,6,7,8-tetrahydropteridin-2-yl)amino)cyclobutyl)-2-(3,4,5-trifluorophenyl)acetamide]
< 300 | Cc1nc(N[C@H]2C[C@H](OCc3ccc(F)c(F)c3)C2)nc2c1NC(=O)[C@H](C)N2C [Compound 264, (7S)-2-((trans-3-((3,4-difluorobenzyl)oxy)cyclobutyl)amino)-4,7,8-trimethyl-7,8-dihydropteridin-6(5H)-one]
< 300 | COc1ncc(Cn2cc(CNc3nc(C)c4c(n3)N(C)[C@@H](C)C(=O)N4)cn2)cc1C(F)(F)F [Compound 215, (7S)-2-(((1-((6-methoxy-5-(trifluoromethyl)pyridin-3-yl)methyl)-1H-pyrazol-4-yl)methyl)amino)-4,7,8-trimethyl-7,8-dihydropteridin-6(5H)-one]
< 300 | Cc1nc(N[C@H]2C[C@@H](COc3cnc(C#N)c(F)c3)C2)nc2c1NC(=O)[C@H](C(C)C)N2C [Compound 694, 3-fluoro-5-((cis-3-(((S)-7-isopropyl-4,8-dimethyl-6-oxo-5,6,7,8-tetrahydropteridin-2-yl)amino)cyclobutyl)methoxy)picolinonitrile]
< 300 | Cc1nc(N[C@H]2C[C@@H](COc3ccc(C(F)(F)F)nc3)C2)nc2c1NC(=O)[C@H](C)N2C [Compound 364, (7S)-4,7,8-trimethyl-2-((cis-3-(((6-(trifluoromethyl)pyridin-3-yl)oxy)methyl)cyclobutyl)amino)-7,8-dihydropteridin-6(5H)-one]
< 300 | Cc1nc(N[C@H]2C[C@@H](COc3cnn(C)c3C(F)(F)F)C2)nc2c1NC(=O)[C@H](C(C)C)N2C [Compound 575, (S)-7-isopropyl-4,8-dimethyl-2-((cis-3-(((1-methyl-5-(trifluoromethyl)-1H-pyrazol-4-yl)oxy)methyl)cyclobutyl)amino)-7,8-dihydropteridin-6(5H)-one]
< 300 | CO[C@H](C)[C@H]1C(=O)Nc2c(C)nc(NCc3cnn(CC4CC(F)(F)C4)c3)nc2N1C [Compound 728, (S)-2-(((1-((3,3-difluorocyclobutyl)methyl)-1H-pyrazol-4-yl)methyl)amino)-7-((R)-1-methoxyethyl)-4,8-dimethyl-7,8-dihydropteridin-6(5H)-one]
1000 to 5000 | Cc1nc(N[C@H]2C[C@H](NC(=O)N(C)C3CCC(F)(F)CC3)C2)nc2c1NC(=O)[C@H](C(C)C)N2C [Compound 537, 1-(4,4-difluorocyclohexyl)-3-(trans-3-(((S)-7-isopropyl-4,8-dimethyl-6-oxo-5,6,7,8-tetrahydropteridin-2-yl)amino)cyclobutyl)-1-methylurea]

same assay, conditions: Homo sapiens, COLO 205, 5 h, Colo 205 cells with stably transfected TCF/LEF luciferase reporter; five hours after addition of compound; read-out: TCF reporter Colo205

IC50 [nM] | SMILES
≥ 5000 | Cc1nc(N(Cc2cnn(Cc3ccc(C(F)(F)F)nc3)c2)C(=O)NC2CCCCC2)nc2c1NC(=O)[C@H](C)N2C [Compound 401, (7S)-3-cyclohexyl-1-((1-((6-(trifluoromethyl)pyridin-3-yl)methyl)-1H-pyrazol-4-yl)methyl)-1-(4,7,8-trimethyl-6-oxo-5,6,7,8-tetrahydropteridin-2-yl)urea]
≥ 5000 | Cc1nc(N(Cc2cnn(Cc3ccc(C(F)(F)F)nc3)c2)C(=O)CN)nc2c1NC(=O)[C@H](C)N2C [Compound 406, (7S)-2-amino-N-((1-((6-(trifluoromethyl)pyridin-3-yl)methyl)-1H-pyrazol-4-yl)methyl)-N-(4,7,8-trimethyl-6-oxo-5,6,7,8-tetrahydropteridin-2-yl)acetamide]

same assay, conditions: Homo sapiens, COLO 205, 5 h, R-isomer at C2 (corresponding to C2 S-isomer); Colo 205 TCF/LEF luciferase reporter, 5 h; read-out: TCF reporter Colo205 IC50

IC50 [nM] | SMILES
< 300 | Cc1nc(NCc2cnn(Cc3cc(F)c(F)c(F)c3)c2)nc2c1N(C)C(=O)[C@@H](C)N2C [Compound I-1229]
